Assay results published in US20210170122A1, “METHOD OF WEIGHT REGULATION USING NEBULIZED NICOTINE” (priority 2016, published 2021).

What was measured:
[1] = Experimental: The nicotine solution used for nicotine treatment contains 0.05 milligram of nicotine (free base) per milliliter of solution ([…]). The active mesh nebulizer activates the active mesh for a single inhalation period of 3 seconds (0.05 minute) to deliver the dose of nicotine to the patient.
The nicotine solution used for nicotine treatment contains 0.5 milligram of nicotine (free base) per milliliter of solution (0.5 mg/ml). The active mesh nebulizer activates the active mesh for a single inhalation period of 3 seconds (0.05 minute) to deliver the dose of nicotine to the patient.
The nicotine solution used for nicotine treatment contains 0.01 milligram of nicotine (free base) per milliliter of solution (0.01 mg/ml). The active mesh nebulizer activates the active mesh for a single inhalation period of 3 seconds (0.05 minute) to deliver the dose of nicotine to the patient.
The hypothetical patient receives the nicotine dose at a regular interval (e.g., about every 2 hours) for a weight monitoring period (e.g., about 2 months in the present hypothetical example), after which the hypothetical patient is weighed to determine the effect of the nebulized nicotine solution on the hypothetical patient's weight.

Remark: listed apart in the source

With `CN1CCCC1c1cccnc1` (stereo not shown) [nicotine] the “management of nicotine cravings” value ([1]; Example 1: patient, 2-pack per day smoker, 0.0005 mg dose (0.2 ml/min, 0.05 mg/ml, 3 seconds) by inhalation approximately every two hours) was “sufficient to manage nicotine cravings”, the “patient's weight versus weight when smoking cigarettes” value ([1]; Example 1: patient, 2-pack per day smoker, 0.0005 mg dose by inhalation approximately every two hours) was “holding the patient's weight at the same level as when the patient was smoking cigarettes” and the “lethargy, or lassitude” value ([1]; Example 2: patient, 2-pack per day smoker, 0.005 mg dose (0.2 ml/min, 0.5 mg/ml, 3 seconds) by inhalation) was “sufficiently large to produce lethargy, or lassitude”. The “effect on patient's weight” value ([1]; Example 3: hypothetical patient, 0.01 mg/ml solution, 0.2 ml/min, 3 seconds, about every 2 hours for about 2 months) was “has lost weight”, the “period with no desire for further nicotine inhalation” value (0.5 mg nicotine/ml (0.05%), single inhalation plume, 0.2 ml/minute for 10 seconds, according to theory and belief) was 2 to 3 h and the “period of nicotine satiety (no desire for further nicotine inhalation)” value (1/40 mg nicotine/ml (0.025% nicotine), 0.2 ml/min, nebulization time 10 seconds, according to theory and belief) was “at least two hours”. For the same compound, the “time to brain response” value (in vivo) was “less than 10 seconds”.
